Laboratory results: patent US7205326B2, “Aniline derivatives, their manufacture and use as pharmaceutical agents” (Hoffmann-La Roche Inc., priority 2003, dated 2007)

What was measured:
HCT116 cells = experiment: HCT116 cell proliferation MTT assay; assay type: cell-based; conditions: HCT-116; HCT116 human colon carcinoma cells, MTT assay after 5 days (120 h) incubation, compound 3 uM to 0.15 nM
Experimental: HCT116 cells (human colon carcinoma cell line) were cultivated in RPMI 1640, 2.5% FCS, 2 mM Glutamine, 100 u/ml Penicillin, 100 ug/ml Streptomycin. For the assay the cells were seeded in 384 well plates, 1000 cells per well, in the same medium
The next day compounds (dissolved 10 mM in DMSO) were added in various concentrations ranging from 3 uM to 0.15 nM. After 5 days the MTT assay was done mainly according to the instructions of the manufacturer (Cell proliferation kit I, MTT, from Roche Molecular Biochemicals). In brief: MTT labeling reagent was added to a final concentration of 0.5 mg/ml, added and incubated for 4 hrs at 37° C., 5% CO2. During this incubation time purple formazan crystals are formed. After addition of the solubilization solution (20% SDS in 0.02 M HCl) the plates were incubated overnight at 37° C., 5% CO2. After careful mixing plates were measured in Victor 2 (scanning multiwell spectrophotometer, Wallac) at 550 nm.
A decrease in number of living cells results in a decrease in the total metabolic activity in the sample. The decrease directly correlates to the amount of purple color resulting from the solubilization of the purple formazan crystals.
Materials: • HCT116 1000 cells in 60 ul per well of 384 well plate (Greiner) • Medium: RPMI 1640, 2.5% FCS, glutamine, pen/strep. • Incubate 1 day at 37° C.
Induction: • Dilution of compound in DMSO: 3 ul 10 mM+27 ul DMSO, dilute 1:3 • Add 2 ul of compound dilution row to 95 ul of medium • Add 10 ul of compound dilution to 60 ul medium in test plate results in 0.3% DMSO per well • Incubate 120 h (5 days) at 37° C., 5% CO2
Analysis: • Add 7 ul MTT ([…]), incubate 4 h at 37° C. • Add 30 ul lysis buffer (20% SDS, 0.04N HCl) per well • Incubate overnight at 37° C.
Measurement: • Victor 2 (scanning multiwell spectrophotometer, Wallac), at 550 nm • Determination of IC50 was done using XL-fit.

Fc1ccc(C=Cc2nc(CNc3ccc(CCCCn4ccnn4)cc3)co2)c(C(F)(F)F)c1 [Example 27, {2-[2-(4-Fluoro-2-trifluoromethyl-phenyl)-vinyl]-oxazol-4-ylmethyl}-[4-(4-[1,2,3]triazol-1-yl-butyl)-phenyl]-amine]
IC50 (HCT116 cells): > 40 nM | melting point: 109 to 111 °C

FC(F)(F)Oc1cccc(C=Cc2nc(CNc3ccc(CCCCn4ccnn4)cc3)co2)c1 [Example 28, [4-(4-[1,2,3]Triazol-1-yl-butyl)-phenyl]-{2-[2-(3-trifluoromethoxy-phenyl)-vinyl]-oxazol-4-ylmethyl}-amine]
IC50 (HCT116 cells): > 40 nM | melting point: 91 to 93 °C

FC1(F)Oc2ccc(C=Cc3nc(CNc4ccc(CCCCn5ccnn5)cc4)co3)cc2O1 [Example 7, {2-[2-(2,2-Difluoro-benzo[1,3]dioxol-5-yl)-vinyl]-oxazol-4-ylmethyl}-[4-(4-[1,2,3]triazol-1-yl-butyl)-phenyl]-amine]
IC50 (HCT116 cells): > 40 nM | melting point: 102 to 104 °C

CN(Cc1coc(C=Cc2ccc(C(F)(F)F)cc2)n1)c1ccc(CCCCn2ccnn2)cc1 [Example 3, Methyl-[4-(4-[1,2,3]triazol-1-yl-butyl)-phenyl]-{2-[2-(4-trifluoromethyl-phenyl)-vinyl]-oxazol-4-ylmethyl}-amine]
IC50 (HCT116 cells): < 20 nM | melting point: 112 to 114 °C

O=C(Nc1ccc(CCCCn2ccnn2)cc1)c1coc(C=Cc2ccc(C(F)(F)F)cc2)n1 [Example 11, 2-[2-(4-Trifluoromethyl-phenyl)-vinyl]-oxazole-4-carboxylic acid [4-(4-[1,2,3]triazol-1-yl-butyl)-phenyl]-amide]
IC50 (HCT116 cells): 20 to 40 nM | melting point: 183 to 185 °C

Clc1ccc(C=Cc2nc(CNc3ccc(CCCCn4ccnn4)cc3)co2)cc1Cl [Example 25, {2-[2-(3,4-Dichloro-phenyl)-vinyl]-oxazol-4-ylmethyl}-[4-(4-[1,2,3]triazol-1-yl-butyl)-phenyl]-amine]
IC50 (HCT116 cells): < 20 nM | melting point: 76.8 to 78.8 °C

[O-][S+](c1ccc(/C=C/c2nc(CNc3ccc(CCCCn4ccnn4)cc3)co2)cc1)C(F)(F)F (centres unmarked) [Example 33, [4-(4-[1,2,3]Triazol-1-yl-butyl)phenyl]-{2-[(E)-2-(-4-trifluoromethanesulfinyl-phenyl)-vinyl]-oxazol-4-ylmethyl}-amine]
IC50 (HCT116 cells): > 40 nM | melting point: 121 to 124 °C
